From US8916565B2, “Pyrrolopyrazine-spirocyclic piperidine amides as modulators of ion channels” (priority 2011, dated 2014)

Each compound was assayed against human NaV subtype, like NaV 1.7 (Homo sapiens, UniProt Q15858) (assay: E-VIPR optical membrane potential assay with electrical stimulation). Settings: active against one or more sodium channels; Table 3 does not name the assay or NaV subtype; read-out: Binned Activity Data (IC50).
Assay type: cell-based

human NaV subtype, like NaV 1.7, sequence (Q15858 whole entry): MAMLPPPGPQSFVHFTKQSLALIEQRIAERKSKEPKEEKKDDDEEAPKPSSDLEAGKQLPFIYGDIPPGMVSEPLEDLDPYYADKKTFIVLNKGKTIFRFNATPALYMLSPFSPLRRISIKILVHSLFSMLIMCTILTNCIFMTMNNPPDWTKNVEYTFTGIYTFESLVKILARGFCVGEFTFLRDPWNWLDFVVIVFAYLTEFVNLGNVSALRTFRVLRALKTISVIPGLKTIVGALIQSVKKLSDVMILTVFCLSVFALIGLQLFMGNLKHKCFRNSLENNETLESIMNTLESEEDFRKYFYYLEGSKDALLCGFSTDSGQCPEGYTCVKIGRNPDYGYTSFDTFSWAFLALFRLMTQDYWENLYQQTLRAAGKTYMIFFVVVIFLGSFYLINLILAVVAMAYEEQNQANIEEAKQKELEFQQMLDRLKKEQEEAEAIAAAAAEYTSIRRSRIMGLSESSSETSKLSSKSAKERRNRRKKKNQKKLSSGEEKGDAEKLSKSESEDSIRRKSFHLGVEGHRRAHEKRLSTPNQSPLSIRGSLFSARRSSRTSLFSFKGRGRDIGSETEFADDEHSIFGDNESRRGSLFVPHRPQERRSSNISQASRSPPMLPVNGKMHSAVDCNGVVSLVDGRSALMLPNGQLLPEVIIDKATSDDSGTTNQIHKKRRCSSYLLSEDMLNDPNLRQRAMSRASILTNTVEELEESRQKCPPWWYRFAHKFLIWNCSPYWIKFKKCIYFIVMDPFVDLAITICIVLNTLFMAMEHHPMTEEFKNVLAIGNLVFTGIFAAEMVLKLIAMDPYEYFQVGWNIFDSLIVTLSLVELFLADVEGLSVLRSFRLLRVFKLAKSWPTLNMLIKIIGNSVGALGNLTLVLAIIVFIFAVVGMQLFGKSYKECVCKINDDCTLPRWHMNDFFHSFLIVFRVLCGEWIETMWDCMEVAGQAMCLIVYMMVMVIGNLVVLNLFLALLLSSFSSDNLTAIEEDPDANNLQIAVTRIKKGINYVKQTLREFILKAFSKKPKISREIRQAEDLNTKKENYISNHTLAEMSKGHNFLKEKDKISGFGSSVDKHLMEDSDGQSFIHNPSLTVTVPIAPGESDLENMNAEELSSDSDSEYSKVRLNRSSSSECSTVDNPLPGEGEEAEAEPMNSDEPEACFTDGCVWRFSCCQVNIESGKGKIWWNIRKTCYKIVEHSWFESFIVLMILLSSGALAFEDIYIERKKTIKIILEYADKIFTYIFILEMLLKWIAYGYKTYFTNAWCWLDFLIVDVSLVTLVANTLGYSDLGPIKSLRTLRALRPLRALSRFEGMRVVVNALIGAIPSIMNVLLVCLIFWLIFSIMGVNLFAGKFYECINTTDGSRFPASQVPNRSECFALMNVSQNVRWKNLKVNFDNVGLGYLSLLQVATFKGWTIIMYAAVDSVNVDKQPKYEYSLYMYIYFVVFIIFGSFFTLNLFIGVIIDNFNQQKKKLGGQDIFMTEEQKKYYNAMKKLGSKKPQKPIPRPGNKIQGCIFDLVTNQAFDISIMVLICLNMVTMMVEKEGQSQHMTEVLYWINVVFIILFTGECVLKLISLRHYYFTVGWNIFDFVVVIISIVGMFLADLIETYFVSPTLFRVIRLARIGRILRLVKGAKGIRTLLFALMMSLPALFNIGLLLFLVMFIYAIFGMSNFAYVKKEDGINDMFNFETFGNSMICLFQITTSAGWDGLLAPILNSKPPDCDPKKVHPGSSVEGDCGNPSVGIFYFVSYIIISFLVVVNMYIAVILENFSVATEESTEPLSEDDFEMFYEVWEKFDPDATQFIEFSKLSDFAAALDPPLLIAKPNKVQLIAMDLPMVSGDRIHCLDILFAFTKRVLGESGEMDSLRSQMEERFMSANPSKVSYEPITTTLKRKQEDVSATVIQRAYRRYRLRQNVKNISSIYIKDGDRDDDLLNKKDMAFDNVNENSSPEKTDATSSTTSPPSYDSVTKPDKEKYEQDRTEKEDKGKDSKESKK

| IC50 [nM] | SMILES |
| --- | --- |
| ≤ 2000 | Cc1cc(C(=O)N2CCC3(CC2)c2ccc(C(F)(F)C(F)(F)F)n2CCN3C)ccc1S(=O)(=O)C(C)C [Compound 326] |
| ≤ 2000 | COc1cc(C(=O)N2CC[C@@]3(c4ccc(C(F)(F)F)n4CCN3C)[C@H](F)C2)ccc1OC(C)C [Compound 327] |
| > 5000 | COc1cc(C(=O)N2CC[C@]3(C[C@H]2C)c2ccc(C(F)(F)F)n2CCN3C)ccc1OC(C)C [Compound 328] |
| 2000 to 5000 | CC(=O)c1ccc2n1CCN(C)C21CCN(C(=O)c2ccc(OCC3CC3)c(F)c2)CC1 [Compound 329] |
| 2000 to 5000 | CN1CCn2c(Cl)ccc2C12CCN(C(=O)c1ccc(OCC(F)(F)F)cc1)CC2 [Compound 330] |
| > 5000 | CCc1ccc(C(=O)N2CCC3(CC2)c2ccc(C(=O)C(F)(F)F)n2CCN3C)nc1 [Compound 331] |
| ≤ 2000 | Cc1cc(C(=O)N2CCC3(CC2)c2ccc(C(F)(F)F)n2CCN3C2CC2)ccc1OCC(C)(C)O [Compound 332] |
| ≤ 2000 | Cc1cc(C(=O)N2CCC3(CC2)c2ccc(C(F)(F)F)n2CCN3C2CC2)ccc1OC(C)C [Compound 333] |
| > 5000 | CN1CCn2c(Cl)ccc2C12CCN(C(=O)c1ccc(Cc3ccccc3)cc1)CC2 [Compound 334] |
| ≤ 2000 | Cc1cc(C(=O)N2CCC3(CC2)c2ccc(C(F)(F)F)n2CCN3C)ccc1OCCO [Compound 335] |
| ≤ 2000 | COCCN1CCn2c(C(F)(F)F)ccc2C12CCN(C(=O)c1ccc(OC(C)C)c(CO)c1)CC2 [Compound 336] |
| ≤ 2000 | CC(C)Oc1ccc(C(=O)N2CCC3(CC2)NCC(C)(C)n2c(C(F)(F)F)ccc23)cc1F [Compound 337] |
| ≤ 2000 | COc1ccc(C(=O)N2CCC3(CC2)c2ccc(C(=O)C(C)C)n2CCN3C)cc1C [Compound 338] |
| ≤ 2000 | CC(C)Cc1ccc(C(=O)N2CCC3(CC2)c2ccc(C(=O)C(F)(F)F)n2CCN3C)cc1 [Compound 339] |
| ≤ 2000 | Cc1cc(C(=O)N2CCC3(CC2)c2c(Br)cc(C(F)(F)F)n2CCN3C)ccc1OC(C)C [Compound 340] |
| ≤ 2000 | COc1ccc(C(=O)N2CCC3(CC2)NCC(C)n2c(C(=O)C(F)(F)F)ccc23)cc1Cl (centres unmarked) [Compound 341] |
| > 5000 | CC(=O)c1ccc2n1CCN(C)C21CCN(C(=O)c2ccc(OC(C)C)cc2)CC1 [Compound 342] |
| ≤ 2000 | CCNS(=O)(=O)c1ccc(C(=O)N2CCC3(CC2)c2ccc(C(F)(F)F)n2CCN3C)cc1C [Compound 343] |
| 2000 to 5000 | CC(=O)c1cc2n(c1)CC(C)(C)NC21CCN(C(=O)c2ccc(C3CCCCC3)cc2)CC1 [Compound 344] |
| > 5000 | CCc1ccc(C(=O)N2CCC3(CC2)c2ccc(C(F)(F)F)n2CCN3C)nc1 [Compound 345] |
| ≤ 2000 | CN1CCn2c(C(F)(F)F)ccc2C12CCN(C(=O)c1cccnc1N1CCCCC1)CC2 [Compound 346] |
| ≤ 2000 | Cc1cc(C(=O)N2CCC3(CC2)c2ccc(C(F)(F)F)n2CCN3C)ccc1S(=O)(=O)N(C)C [Compound 347] |
| ≤ 2000 | COc1cc(C(=O)N2CCC3(CC2)c2c(Br)cc(C(F)(F)F)n2CCN3C)ccc1OC(C)C [Compound 348] |
| ≤ 2000 | C[C@H]1Cn2c(C(=O)C(F)(F)F)ccc2C2(CCN(C(=O)c3ccc(C(C)(C)O)cc3)CC2)N1C [Compound 349] |
| ≤ 2000 | Cc1cc(C(=O)N2CC[C@]3(c4ccc(C(F)(F)F)n4CCN3C)[C@H](F)C2)ccc1C(C)(C)O [Compound 350] |

| IC50 [nM] | SMILES |
| --- | --- |
| > 5000 | COc1ccc(C(=O)N2CCC3(CC2)c2ccc(C(F)(F)F)n2CCN3C)cc1 [Compound 351] |
| 2000 to 5000 | CN1CCn2c(Cl)ccc2C12CCN(C(=O)c1ccc(S(=O)(=O)NC3CC3)cc1)CC2 [Compound 352] |
| ≤ 2000 | COc1cc(C(=O)N2CCC3(CC2)NC(C)(C)Cn2c(C(C)=O)ccc23)ccc1C(C)(C)C [Compound 353] |
| ≤ 2000 | CC(C)(O)c1ccc(C(=O)N2CCC3(CC2)c2ccc(C(F)(F)F)n2CCN3CC(F)F)cc1 [Compound 354] |
| ≤ 2000 | Cc1cc(C(=O)N2CCC3(CC2)c2ccc(C(=O)C(F)(F)F)n2C(C)CN3C)ccc1OC(C)C (centres unmarked) [Compound 355] |
| ≤ 2000 | Cc1cc(C(=O)N2CCC3(CC2)NCCn2c(C(F)(F)F)ccc23)ccc1OC(C)C [Compound 356] |
| ≤ 2000 | COc1nc(C(=O)N2CCC3(CC2)c2ccc(C(=O)C(F)(F)F)n2CCN3C)ccc1OC(C)C [Compound 357] |
| 2000 to 5000 | CN1CCn2c(C(=O)C(F)(F)F)ccc2C12CCN(C(=O)c1ccc(C(C)(C)O)cc1)CC2 [Compound 358] |
| ≤ 2000 | CC(C)C(=O)c1ccc2n1CCN(C)C21CCN(C(=O)c2ccc(COCCC(F)(F)F)cc2)CC1 [Compound 359] |
| ≤ 2000 | COc1cc(C(=O)N2CCC3(CC2)c2ccc(C(=O)C(F)(F)F)n2CCN3C)ccc1OCCOC(F)(F)F [Compound 360] |
| ≤ 2000 | CC(=O)c1ccc2n1C(C)(C)CN(C)C21CCN(C(=O)c2ccc(C3CCCCC3)cc2)CC1 [Compound 361] |
| > 5000 | COc1cc(C(=O)N2CCC3(CC2)c2ccc(C(F)(F)F)n2CCN3C=O)ccc1OC(C)C [Compound 362] |
| ≤ 2000 | CC(C)S(=O)(=O)c1ccc(C(=O)N2CCC3(CC2)c2c(F)cc(C(F)(F)F)n2CCN3C)cc1 [Compound 363] |
| > 5000 | COc1cc(C(=O)N2CCC3(CC2)NC(C)(C)Cn2cc(C(C)=O)cc23)ccc1C(C)(C)C [Compound 364] |
| ≤ 2000 | CN1CCn2c(C(F)(F)F)ccc2C12CCN(C(=O)c1cc3occc3n1C)CC2 [Compound 365] |
| ≤ 2000 | CC(C)(O)c1ccc(C(=O)N2CCC3(CC2)c2ccc(C(F)(F)F)n2CCN3CC(F)(F)F)cc1 [Compound 366] |
| ≤ 2000 | CC(C)Oc1ccc(C(=O)N2CCC3(CC2)NCCn2c(C(F)(F)F)ccc23)c(F)c1 [Compound 367] |
| ≤ 2000 | CN1CCn2c(C(=O)C3CC3)ccc2C12CCN(C(=O)c1ccc(C(C)(C)O)c(F)c1)CC2 [Compound 368] |
| ≤ 2000 | CN1CCn2c(C(=O)C(F)(F)F)ccc2C12CCN(C(=O)c1ccc(OCc3ccccc3)cc1)CC2 [Compound 369] |
| ≤ 2000 | CN1CCn2c(C(F)(F)F)ccc2C12CCN(C(=O)c1ccc(C(C)(C)O)c(F)c1)CC2 [Compound 370] |
| ≤ 2000 | Cc1cc(C(F)F)n2ncc(C(=O)N3CCC4(CC3)c3ccc(C(F)(F)F)n3CCN4C)c2n1 [Compound 371] |
| ≤ 2000 | COc1cc(C(=O)N2CCC3(CC2)NCCn2c(C(F)(F)F)ccc23)ccc1OC(C)C [Compound 372] |
| ≤ 2000 | COc1cc(C(=O)N2CCC3(CC2)c2ccc(C(C)=O)n2CCN3C)ccc1COCCC(F)(F)F [Compound 373] |
| > 5000 | O=C(c1ccc(Oc2ccccc2)cc1)N1CCC2(CC1)NCCn1c(C(F)(F)F)ccc12 [Compound 374] |
| ≤ 2000 | COc1cc(C(=O)N2CCC3(CC2)NC(C)(C)Cn2c(C(=O)C(F)(F)F)ccc23)ccc1OC(C)C [Compound 375] |

| IC50 [nM] | SMILES |
| --- | --- |
| 2000 to 5000 | Cc1cc(C(=O)N2CCC3(CC2)c2ccc(C(=O)C(F)(F)F)n2CCN3C)ccc1F [Compound 376] |
| ≤ 2000 | COc1ccc(C(=O)N2CCC3(CC2)NC(C)(C)Cn2c(C(=O)C(F)(F)F)ccc23)cc1C(F)(F)F [Compound 377] |
| ≤ 2000 | Cc1cc(N2CCCC2)n2ncc(C(=O)N3CCC4(CC3)c3ccc(C(F)(F)F)n3CCN4C)c2n1 [Compound 378] |
| ≤ 2000 | COc1nc(C(=O)N2CCC3(CC2)c2c(Cl)cc(C(F)(F)F)n2CCN3C)ccc1OC(C)C [Compound 379] |
| ≤ 2000 | CNS(=O)(=O)c1ccc(C(=O)N2CCC3(CC2)c2ccc(C(F)(F)C(F)(F)F)n2CCN3C)cc1 [Compound 381] |
| 2000 to 5000 | CCc1ccc(C(=O)N2CCC3(CC2)c2ccc(C(C)=O)n2CCN3C)cc1OC [Compound 382] |
| 2000 to 5000 | Cc1cc(C(=O)N2CCC3(CC2)c2ccc(C(=O)C(F)(F)F)n2CCN3C)ccc1-c1cnn(C)c1 [Compound 383] |
| ≤ 2000 | Cc1cc(C(=O)N2CCC3(CC2)c2c(F)cc(C(F)(F)F)n2CCN3C)ccc1C1(O)CCC1 [Compound 384] |
| ≤ 2000 | CC[C@H](C)Oc1ccc(C(=O)N2CCC3(CC2)c2ccc(C(F)(F)C(F)(F)F)n2CCN3C)cc1OC [Compound 385] |
| ≤ 2000 | CCCCOc1ccc(C(=O)N2CCC3(CC2)c2ccc(Cl)n2CCN3C)cc1 [Compound 386] |
| ≤ 2000 | CN1CCn2c(Cl)ccc2C12CCN(C(=O)c1ccc(C(C)(C)O)c(F)c1)CC2 [Compound 387] |
| > 5000 | CC(=O)c1ccc2n1CCN(C)C21CCN(C(=O)c2ccc(OCC3CC3)cc2)CC1 [Compound 388] |
| ≤ 2000 | CN1CCn2c(C(=O)C(F)(F)F)ccc2C12CCN(C(=O)c1ccc(C3CC3)cc1)CC2 [Compound 389] |
| ≤ 2000 | CC(C)Oc1ccc(C(=O)N2CCC3(CC2)c2c(F)cc(C(F)(F)F)n2CCN3C)cc1CO [Compound 390] |
| > 5000 | CC(C)Oc1ccc(C(=O)N2CCC3(CC2)c2cc(C(=O)C(F)(F)F)cn2C(C)(C)CN3C)cc1F [Compound 391] |
| 2000 to 5000 | CN1CCn2c(C(F)(F)F)ccc2C12CCN(C(=O)c1cccnc1N1CCC(F)(F)C1)CC2 [Compound 392] |
| > 5000 | CN1CCn2c(C(F)(F)F)ccc2C12CCN(C(=O)c1ccccc1-c1ccccc1)CC2 [Compound 393] |
| 2000 to 5000 | Cc1cc(C(=O)N2CCC3(CC2)c2ccc(C#N)n2CCN3C)ccc1OC(C)C [Compound 394] |
| ≤ 2000 | CC(C)C(O)c1ccc(C(=O)N2CCC3(CC2)c2c(F)cc(C(F)(F)F)n2CCN3C)cc1 (centres unmarked) [Compound 395] |
| ≤ 2000 | CC1(C)Cn2c(C(=O)C(F)(F)F)ccc2C2(CCN(C(=O)c3ccc(S(=O)(=O)C(F)(F)F)cc3)CC2)N1 [Compound 396] |
| ≤ 2000 | CCCOc1ccc(C(=O)N2CCC3(CC2)c2c(F)cc(C(F)(F)F)n2CCN3C)cc1OC [Compound 397] |
| ≤ 2000 | CC(=O)c1ccc2n1CCN(C)C21CCN(C(=O)c2ccc(OC(C)C)c(Cl)c2)CC1 [Compound 398] |
| 2000 to 5000 | Cc1cc(S(=O)(=O)C(C)C)ccc1C(=O)N1CCC2(CC1)c1ccc(C(=O)C(C)(C)C)n1CCN2C [Compound 399] |
| > 5000 | CN1CCn2c(Cl)ccc2C12CCN(C(=O)c1ccc(C3CC3)cc1)CC2 [Compound 400] |
